pIC50, pKi: −log10 of the molar value. Read-outs that look alike come from different tables or passages of the source.
Assays:
HIV-1 protease = HIV-1 protease (Human immunodeficiency virus type 1 group M subtype B, UniProt P04585); assay: biochemical
HIV-1 (strain IIIB) = assay: microbe, parasite or virus in culture; format: cell-based; details: Human immunodeficiency virus 1, IIIB, MT4, Table 12; anti-viral potency in MT-4 cells; read-out: IC50
[1] = Table 12, HIV-1 protease, read-out: Ki

Structure (SMILES)	pKi (HIV-1 protease)	pIC50 (HIV-1 (strain IIIB))	pKi (HIV-1 protease; [1])
COc1ccc(S(=O)(=O)N(CC(O)C(Cc2ccccc2)NC(=O)OC2COC3OCCC23)CC(C)(C)CCNC(=O)OC(C)C)cc1 [Compound 242, (3R,3aS,6aR)hexahydrofuro[2,3-b]furan-3-yl N-((1S,2R)-1-benzyl-2-hydroxy-3-4-[(isopropoxycarbonyl)amino]-2,2-dimethylbutyl[(4-methoxyphenyl)sulfonyl]aminopropyl)carbamate and (3S,3aR,6aS)hexahydrofuro[2,3-b]furan-3-yl N-((1S,2R)-1-benzyl-2-hydroxy-3-4-[(isopropoxycarbonyl)amino]-2,2-dimethylbutyl[(4-methoxyphenyl)sulfonyl]aminopropyl)carbamate]	> 9.00	≥ 7.00	–
CC(C)(CCC#N)CN(CC(O)[C@H](Cc1ccccc1)NC(=O)OC1COC2OCCC12)S(=O)(=O)c1cccc(N)c1 (stereo partly drawn) [Compound 10, (3S,3aR,6aS)-Hexahydrofuro[2,3-b]furan-3-yl N-((1S,2R)-3-[(3-aminophenyl)sulfonyl](4-cyano-2,2-dimethylbutyl)-amino-1-benzyl-2-hydroxypropyl)carbamate]	–	≥ 7.00	> 9.00
CNc1cccc(S(=O)(=O)N(CC(O)C(Cc2ccccc2)NC(=O)OC2COC3OCCC23)CC(C)(C)CCCC#N)c1 (stereo not shown) [Compound 38]	–	≥ 7.00	> 9.00
COc1ccc(S(=O)(=O)N(CC(O)C(Cc2ccccc2)NC(=O)OC2COC3OCCC23)CC(C)(C)CCC#N)cc1 [Compound 11, (3S,3aR,6aS)-Hexahydrofuro[2,3-b]furan-3-yl N-((1S,2R)-1-benzyl-3-(4-cyano-2,2-dimethylbutyl)[(4-methoxyphenyl)sulfonyl]amino-2-hydroxypropyl)carbamate]	–	≥ 7.00	> 9.00
COc1ccc(S(=O)(=O)N(CCCCC2(C)OCCO2)C[C@@H](O)[C@H](Cc2ccccc2)NC(=O)OC(C)(C)C)cc1 [Compound 201, tert-Butyl N-((1S,2R)-1-benzyl-2-hydroxy-3-[(4-methoxyphenyl)sulfonyl][4-(2-methyl-1,3-dioxolan-2-yl)butyl]aminopropyl)carbamate]	–	< 6.00	8.00 to 9.00
COc1ccc(S(=O)(=O)N(CC(C)CCC#N)CC(O)C(Cc2ccccc2)NC(=O)OC2CCOC2)cc1 [Compound 8, (3S)-Tetrahydro-3-furanyl N-((1S,2R)-1-benzyl-3-[(2RS)-4-cyano-2-methyl][(4-methoxyphenyl)sulfonyl]amino-2-hydroxypropyl)carbamate]	–	≥ 7.00	> 9.00
CC(C)(CCC#N)CN(C[C@@H](O)[C@H](Cc1ccccc1)NC(=O)O[C@H]1CO[C@H]2OCC[C@H]21)S(=O)(=O)c1ccc2c(c1)OCO2 [Compound 25, {(1S,2R)-3-[(Benzo[1,3]dioxole-5-sulfonyl)-(4-cyano-2,2-dimethyl-butyl)-amino]-1-benzyl-2-hydroxy-propyl}-carbamic acid (3R, 3aS, 6aR)hexahydro-furo[2,3-b]furan-3-yl ester]	–	≥ 7.00	> 9.00
COc1ccc(S(=O)(=O)N(CCC#N)C[C@@H](O)[C@H](Cc2ccccc2)NC(=O)OC2COCOC2)cc1 [Compound 125]	–	< 6.00	> 9.00
COc1ccc(S(=O)(=O)N(CCCCC(C)=O)C[C@@H](O)[C@H](Cc2ccccc2)NC(=O)O[C@H]2CCOC2)cc1 [Compound 205, (3S)-Tetrahydro-3-furanyl N-(1S,2R)-1-benzyl-2-hydroxy-3-[[(4-methoxyphenyl)sulfonyl](5-oxohexyl)amino]-propylcarbamate]	–	6.00 to 6.30	> 9.00
CNc1cccc(S(=O)(=O)N(CC(O)C(Cc2ccccc2)NC(=O)OC2COC3OCCC23)CC(C)(C)CCCNS(C)(=O)=O)c1 [Compound 270, (3R,3aS,6aR)hexahydrofuro[2,3-b]furan-3-yl N-[(1S,2R)-1-benzyl-3-((5-[(methylsulfonyl]amino-2,2-dimethylpentyl)[3-(methylamino)phenyl]sulfonylamino)-2-hydroxypropyl]carbamate]	–	≥ 7.00	> 9.00
COc1ccc(S(=O)(=O)N(C[C@@H](O)[C@H](Cc2ccccc2)NC(=O)OC2COCOC2)CC(C)(C)CCC(N)=O)cc1 [Compound 273, {(1S,2R)-1-Benzyl-3-[(4-carboxamide-2,2-dimethyl-butyl)-(4-methoxy-benzenesulfonyl)-amino]-2-hydroxy-propyl}-carbamic acid [1,3]dioxan-5-yl ester]	–	6.30 to 7.00	> 9.00
COc1ccc(S(=O)(=O)N(C[C@@H](O)[C@H](Cc2ccccc2)NC(=O)O[C@H]2CCOC2)CC(C)(C)CCC(C)=O)cc1 [Compound 208, (3S)-Tetrahydro-3-furanyl N-((1S,2R)-1-benzyl-3-(2-,2-dimethyl-5-oxohexyl)[(4-methoxyphenyl)sulfonyl]amino-2-hydroxypropyl)carbamate]	–	6.30 to 7.00	> 9.00
COc1ccc(S(=O)(=O)N(CC(O)[C@H](Cc2ccccc2)NC(=O)OC2COC3OCCC23)CC(C)(C)CCCC(C)=O)cc1 (stereo partly shown) [Compound 259]	–	≥ 7.00	> 9.00
COC(=O)CCC(C)(C)CN(C[C@@H](O)[C@H](Cc1ccccc1)NC(=O)OC1COCOC1)S(=O)(=O)c1ccc(OC)cc1 [Compound 274, {(1S,2R)-1-Benzyl-3-[(4-carbomethoxy-2,2-dimethyl-butyl)-(4-methoxy-benzenesulfonyl)-amino]-2-hydroxy-propyl}-carbamic acid[1,3]dioxan-5-yl ester]	–	6.30 to 7.00	> 9.00
CN(C)C(=O)NCCCCC(C)(C)CN(CC(O)C(Cc1ccccc1)NC(=O)OC1COC2OCCC12)S(=O)(=O)c1ccc2c(c1)OCCO2 [Compound 251, (3R,3aS,6aR)hexahydrofuro[2,3-b]furan-3-yl N-(1S,2R)-1-benzyl-3-[(2,3-dihydro-1,4-benzodioxin-6-ylsulfonyl)(6-[(dimethylamino)carbonyl]amino-2,2-dimethylhexyl)amino]-2-hydroxypropylcarbamate]	–	≥ 7.00	> 9.00
COc1ccc(S(=O)(=O)N(CCC#N)C[C@@H](O)[C@H](Cc2ccccc2)NC(=O)O[C@H]2CO[C@H]3OCC[C@H]32)cc1 [Compound 124, {(1S,2R)-3-[(4-methoxybenzenesulfonyl)-(2-cyanoethyl)-amino]-1-benzyl-2-hydroxy-propyl}-carbamic acid (3R,3aS,6aR)hexahydro-furo[2,3-b]furan-3-yl ester]	–	≥ 7.00	> 9.00
CC(C)(CCCN)CN(CC(O)C(Cc1ccccc1)NC(=O)OC1COC2OCCC12)S(=O)(=O)c1ccc2c(c1)OCO2 [Compound 257, 3R,3aS,6aR)hexahydrofuro[2,3-b]furan-3-yl N-(1S,2R)-3-[(5-amino-2,2-dimethylpentyl)(1,3-benzodioxol-5-ylsulfonyl)amino]-1-benzyl-2-hydroxypropylcarbamate]	–	6.30 to 7.00	> 9.00
CC(C)(CCCC#N)CN(CC(O)C(Cc1ccccc1)NC(=O)OC1COC2OCCC12)S(=O)(=O)c1ccc2c(c1)OCCO2 (stereo not shown) [Compound 40]	–	≥ 7.00	> 9.00
CNc1cccc(S(=O)(=O)N(C[C@@H](O)[C@H](Cc2ccccc2)NC(=O)O[C@H]2CO[C@H]3OCC[C@H]32)CC(C)(C)CCCN)c1 [Compound 258, (3R,3aS,6aR)hexahydrofuro[2,3-b]furan-3-yl N-[(1S,2R)-3-((5-amino-2,2-dimethylpentyl)[3-(methylamino)phenyl]sulfonylamino)-1-benzyl-2-hydroxypropyl]carbamate]	–	6.30 to 7.00	> 9.00
COc1ccc(S(=O)(=O)N(CC(C)CCC(C)=O)CC(O)[C@H](Cc2ccccc2)NC(=O)OC2CCOC2)cc1 (stereo partly drawn) [Compound 207, (3S)-Tetrahydro-3-furanyl N-(1S, 2R)-1-benzyl-2-hydroxy-3-[[(4-methoxyphenyl)sulfonyl](2-methyl-5-oxohexyl)amino]propylcarbamate]	–	≥ 7.00	> 9.00
COC(=O)NCCCC(C)(C)CN(CC(O)C(Cc1ccccc1)NC(=O)OC1COC2OCCC12)S(=O)(=O)c1ccc(OC)cc1 [Compound 213, (3R,3aS,6aR)hexahydrofuro[2,3-b]furan-3-yl N-((1S,2R)-1-benzyl-2-hydroxy-3-5-[(methoxycarbonyl)amino]-2,2-dimethylpentyl[(4-methoxyphenyl)sulfonyl]aminopropyl)carbamate and (3S,3aR,6aS)hexahydrofuro[2,3-b]furan-3-yl N-((1S,2R)-1-benzyl-2-hydroxy-3-5-[(methoxycarbonyl)amino]-2,2-dimethylpentyl[(4-methoxyphenyl)sulfonyl]aminopropyl)carbamate]	–	≥ 7.00	> 9.00
CCOC(=O)NCCCC(C)(C)CN(CC(O)C(Cc1ccccc1)NC(=O)OC1COC2OCCC12)S(=O)(=O)c1ccc(OC)cc1 [Compound 230, (3R,3aS,6aR)hexahydrofuro[2,3-b]furan-3-yl N-((1S,2R)-1-benzyl-3-5-[(ethoxycarbonyl)amino]-2,2-dimethylpentyl[(4-methoxyphenyl)sulfonyl]amino-2-hydroxypropyl)carbamate and (3S,3aR,6aS)hexahydrofuro[2,3-b]furan-3-yl N-((1S,2R)-1-benzyl-3-5-[(ethoxycarbonyl)amino]-2,2-dimethylpentyl[(4-methoxyphenyl)sulfonyl]amino-2-hydroxypropyl)carbamate]	–	≥ 7.00	> 9.00
CN(C)C(=O)NCCCC(C)(C)CN(CC(O)C(Cc1ccccc1)NC(=O)OC1COC2OCCC12)S(=O)(=O)c1ccc2c(c1)OCO2 [Compound 266, (3R,3aS,6aR)hexahydrofuro[2,3-b]furan-3-yl N-(1S,2R)-3-[(1,3-benzodioxol-5-ylsulfonyl)(5-[(dimethylamino)carbonyl]amino-2,2-dimethylpentyl)amino]-1-benzyl-2-hydroxypropylcarbamate]	–	≥ 7.00	> 9.00
